Laboratory results as given in ChEMBL document CHEMBL4118167, “Discovery of bicyclo[3,3,1]non-2-ene as a novel skeleton for HIF-1 inhibitors” (Bioorg Med Chem, 2018).
The source made the active and inactive calls. The rule behind the calls is not given here.

How the values were obtained:
Assay type in all cases: cell-based
HeLa = assay: Cytotoxicity against human HeLa cells at 0.3 to 100 uM
[1] = molecular target: T1, HIF1A/p300/CREB-binding protein (Homo sapiens, UniProt Q09472+Q16665+Q92793); assay: Inhibition of HIF-1alpha/p300/CBP (unknown origin) transcriptional activity expressed in human HeLa cells expressing HRE-Luc/CMV-Luc after 12 hrs under hypoxic condition by dual luciferase reporter gene assay
[2] = molecular target: T1, HIF1A/p300/CREB-binding protein; assay: Inhibition of HIF-1alpha/p300/CBP PPI in human HeLa cells assessed as […] of HIF-1alpha accumulation at 3 to 30 uM after 12 hrs under hypoxic condition by Western blot analysis
[3] = molecular target: T1, HIF1A/p300/CREB-binding protein; assay: Inhibition of HIF-1alpha/p300/CBP PPI in human HeLa cells assessed as HIF-1alpha mRNA levels by measuring HIF-1alpha to beta2-microglobulin ratio at 30 uM after 12 hrs under hypoxic condition by qPCR analysis (reference value: 0.90 +/- 0.23)
[4] = molecular target: T1, HIF1A/p300/CREB-binding protein; assay: Inhibition of HIF-1alpha/p300/CBP PPI in human HeLa cells assessed as reduction in HIF-1alpha proteasomal degradation after 12 hrs under hypoxic condition in presence of proteasome inhibitor MG132 by Western blot analysis

| Structure (SMILES) | IC50 [1] | inhibition [2] | Ratio [3] | inhibition [4] | Activity (HeLa) |
| --- | --- | --- | --- | --- | --- |
| O=C(OCc1ccccc1)C1=C(O)CC2(O)CCCC1C2 (configuration not stated) | > 100 µM | – | – | – | Non-Toxic |
| OCc1ccc(-c2nn(Cc3ccccc3)c3ccccc23)o1 | – | – | – | – | Non-Toxic |

Second part, led by results:

| IC50 [1] | inhibition [2] | Ratio [3] | inhibition [4] | Structure (SMILES) | Activity (HeLa) |
| --- | --- | --- | --- | --- | --- |
| 3 µM | inactive | 1.2 | Dose-dependent effect | CC(C)CC(=O)OC1=C(C(=O)OCc2ccccc2)C2CCCC(OC(=O)CC(C)C)(C1)C2 (configuration not stated) | Non-Toxic |
| > 100 µM | – | – | – | CC(C)CCOC(=O)C1=C(O)CC2(O)CCCC1C2 (configuration not stated) | Non-Toxic |
| 6.3 µM | – | – | – | CC(C)CCOC(=O)C1=C(OC(=O)CC(C)C)CC2(OC(=O)CC(C)C)CCCC1C2 (configuration not stated) | Non-Toxic |
